{
  "source": "patent US10017767B2",
  "about": "“Targets in multiple myeloma and other disorders” (FONDAZIONE CENTRO SAN RAFFAELE, priority 2012, dated 2018)",
  "key": {"STK4": {"target": "T1, STK4 (Homo sapiens, UniProt Q13043)", "T1 sequence (Q13043 1-487)": "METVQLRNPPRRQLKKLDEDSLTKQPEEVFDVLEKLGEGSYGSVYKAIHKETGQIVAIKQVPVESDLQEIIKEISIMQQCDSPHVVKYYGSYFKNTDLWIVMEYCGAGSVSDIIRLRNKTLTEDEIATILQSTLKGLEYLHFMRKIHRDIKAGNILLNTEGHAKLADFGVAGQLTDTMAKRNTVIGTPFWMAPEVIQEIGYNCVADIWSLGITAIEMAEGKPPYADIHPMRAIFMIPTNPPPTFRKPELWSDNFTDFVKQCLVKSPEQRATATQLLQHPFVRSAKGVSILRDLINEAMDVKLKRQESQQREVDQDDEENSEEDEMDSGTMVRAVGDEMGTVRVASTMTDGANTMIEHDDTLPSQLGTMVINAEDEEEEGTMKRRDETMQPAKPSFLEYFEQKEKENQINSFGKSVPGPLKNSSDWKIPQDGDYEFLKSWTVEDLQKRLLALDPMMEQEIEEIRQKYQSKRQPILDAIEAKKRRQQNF", "assay": "STK4 biochemical kinase inhibition"}, "MM cell lines": {"system": "MM cell lines", "assay": "Cell growth in a large panel of MM cell lines", "format": "cell-based"}, "[1]": {"system": "KMS-20 cell line, with YAP1 deletion", "assay": "Cell growth in YAP1-deleted KMS-20", "format": "cell-based", "conditions": "KMS-20, YAP1 deleted"}, "YAP1": {"system": "YAP1", "assay": "YAP1 levels in MM cells after treatment", "format": "cell-based", "method": "MM cells were harvested and lysed using lysis buffer: 50 mMTris-HCl (pH 7.4), 150 mM NaCl, 1% NP-40, 5 mM EDTA, 5 mM NaF, 2 mM Na3VO4, 1 mM PMSF, 5 μg/mL leupeptine, and 5 μg/mL aprotinin. Nuclear extracts were prepared using Nuclear Extraction Kit (Panomics). Cell lysates were subjected to sodium dodecyl sulfate-polyacrylamide gel electrophoresis SDS-PAGE, transferred to nitrocellulose membranes, and immunoblotted with different antibodies: ATM, phospho-ATM (Ser1981), ATR, phospho-ATR (Ser428), CHK2, phospho-CHK2 (Thr68), CHK1, phospho-CHK1 (Ser296), p21, p53, phospho-p53 (ser127), STK4, LATS1, phospho-LATS1 (Ser909), phospho-ABL1 (Thr735), cleaved caspase 3, cleaved PARP, histone H3, SAPK/JNK, phospho-SAPK/JNK (Thr183/Tyr185), GM130, GAPDH, and α-tubulin (Cell Signaling); STK4, Nuclear Matrix Protein p84 (Abeam), p73 (BD), phospho-H2A.X (Ser139) (Millipore); as well as ABL1, BAX, Puma, Noxa, actin and nucleolin (Santa Cruz Biotechnology)."}, "[2]": {"system": "ALL (Jurkat) and AML (OCI/AML3) cell lines", "assay": "YAP1 levels, cell number and apoptosis in ALL and AML cell lines", "format": "cell-based"}, "U266 MM cell line": {"system": "U266 MM cell line", "assay": "Apoptosis by Annexin V-FITC/PI staining, U266", "format": "cell-based", "conditions": "10 μM, untreated 10%", "method": "(§1) In particular, cells were washed twice with room-temperature PBS, resuspended in 100 μL of Annexin binding buffer, and stained with specific antibodies for 20 minutes."}, "MM.1S cells": {"system": "MM.1S cells", "assay": "Apoptosis by Annexin V-FITC/PI staining, MM.1S", "format": "cell-based, human", "conditions": "10 μM, untreated 11%", "method": "as §1"}, "[3]": {"assay": "MTT viability assay, U266", "format": "cell-based", "conditions": "human, U266 multiple myeloma cells, 10 μM", "method": "Viability of MM cells was evaluated by 3-[4,5-dimethylthiazol-2-yl]-2,5-diphenyltetrazolium bromide (MTT) colorimetric survival assay. MM cells (20,000-50,000) were plated in 100 μL medium. At the various time points (24-96 hours), 10 μL 5 mg/mL MTT were added to plated cells. After 4 hour incubation at 37° C., medium was discarded and 100 μL MTT stop solution (Isopropanonol with […] Hcl) used to dissolve MTT metabolic products. Absorbance was read at 570 nm and background was subtracted at 630 nm, using spectrophotometer SPECTRAMAX M2 machine and Softmax Pro v5 software. Cellular growth was estimated by cell counting in triplicates, excluding dead cells stained by trypan blue."}, "[4]": {"system": "leukemia and lymphoma cell lines", "assay": "MTT growth inhibition and Annexin V-PI apoptosis in a leukemia and lymphoma cell line panel", "format": "cell-based", "conditions": "cell lines where the DNA damage-ABL1-YAP1 axis was activated"}, "HL-60": {"system": "HL-60", "assay": "MTT / Annexin V-PI, HL-60", "format": "cell-based", "conditions": "HL-60, YAP1 basal expression"}, "RL": {"system": "RL", "assay": "MTT / Annexin V-PI, RL", "format": "cell-based", "conditions": "no nuclear ABL1"}},
  "data": [
    {"smiles": "NS(=O)(=O)c1ccc(N/N=C2\\C(=O)Nc3ccc4ncccc4c32)cc1", "note": "[GW305178X]", "values": [
      {"measurement": "IC50", "setting": "STK4", "result": 12, "unit": "nM"},
      {"measurement": "effect on cell growth / proliferation in MM cell lines", "setting": "MM cell lines", "result": "reduced proliferation in most cell lines with low YAP1 levels"},
      {"measurement": "activity against KMS-20", "setting": "[1]", "result": "not active"},
      {"measurement": "YAP1 levels after treatment", "setting": "YAP1; MM cells", "result": "robust increase in YAP1 levels"},
      {"measurement": "YAP1 levels, cell number and apoptosis", "setting": "[2]", "result": "increased YAP1 levels, reduced cell number, and enhanced apoptosis"}
    ]},
    {"smiles": "COc1cc(Nc2c(C#N)cnc3cc(OCCCN4CCN(C)CC4)c(OC)cc23)c(Cl)cc1Cl", "note": "[SKI-606]", "values": [
      {"measurement": "apoptosis (Annexin V-PI)", "setting": "U266 MM cell line", "result": 58, "unit": "%"},
      {"measurement": "apoptosis (Annexin V-FITC/PI)", "setting": "MM.1S cells", "result": 76, "unit": "%"},
      {"measurement": "viability at 24 h, 10 µM", "setting": "[3]; 24 h, read-out: 24 hour viability (MTT, normalized to DMSO)", "result": 93.8, "unit": "%"},
      {"measurement": "viability at 48 h, 10 µM", "setting": "[3]; 48 h, read-out: 48 hour viability (MTT, normalized to DMSO)", "result": 76.1, "unit": "%"},
      {"measurement": "viability at 72 h, 10 µM", "setting": "[3]; 72 h, read-out: 72 hour viability (MTT, normalized to DMSO)", "result": 53.8, "unit": "%"},
      {"measurement": "viability at 96 h, 10 µM", "setting": "[3]; 96 h, read-out: 96 hour viability (MTT, normalized to DMSO)", "result": 28.5, "unit": "%"},
      {"measurement": "YAP1 expression after treatment", "setting": "YAP1; MM.1S and U266, 10 μM", "result": "significant increase of YAP1 expression"},
      {"measurement": "cellular proliferation and survival", "setting": "[4]", "result": "profoundly reduced"},
      {"measurement": "response to treatment", "setting": "HL-60", "result": "did not respond to the treatment"},
      {"measurement": "response to treatment", "setting": "RL", "result": "did not respond to the treatment"}
    ]}
  ]
}
